We go through 29 molecules from patent publication US8940771B2, “Organic compounds” (Novartis AG, priority 2007, dated 2015).

Molecules are shown by their SMILES. pIC50: −log10 of the molar value.

The pIC50 is the negative decadic logarithm of the IC50, by convention in mol/L. Low readings indicate a large IC50, high ones a small IC50.

PI3Kα (p85iSH2(461-568)-p110α(21-1068)-His, BV1075), sequence (P42336 other isoform, or with tags, fused parts or gaps): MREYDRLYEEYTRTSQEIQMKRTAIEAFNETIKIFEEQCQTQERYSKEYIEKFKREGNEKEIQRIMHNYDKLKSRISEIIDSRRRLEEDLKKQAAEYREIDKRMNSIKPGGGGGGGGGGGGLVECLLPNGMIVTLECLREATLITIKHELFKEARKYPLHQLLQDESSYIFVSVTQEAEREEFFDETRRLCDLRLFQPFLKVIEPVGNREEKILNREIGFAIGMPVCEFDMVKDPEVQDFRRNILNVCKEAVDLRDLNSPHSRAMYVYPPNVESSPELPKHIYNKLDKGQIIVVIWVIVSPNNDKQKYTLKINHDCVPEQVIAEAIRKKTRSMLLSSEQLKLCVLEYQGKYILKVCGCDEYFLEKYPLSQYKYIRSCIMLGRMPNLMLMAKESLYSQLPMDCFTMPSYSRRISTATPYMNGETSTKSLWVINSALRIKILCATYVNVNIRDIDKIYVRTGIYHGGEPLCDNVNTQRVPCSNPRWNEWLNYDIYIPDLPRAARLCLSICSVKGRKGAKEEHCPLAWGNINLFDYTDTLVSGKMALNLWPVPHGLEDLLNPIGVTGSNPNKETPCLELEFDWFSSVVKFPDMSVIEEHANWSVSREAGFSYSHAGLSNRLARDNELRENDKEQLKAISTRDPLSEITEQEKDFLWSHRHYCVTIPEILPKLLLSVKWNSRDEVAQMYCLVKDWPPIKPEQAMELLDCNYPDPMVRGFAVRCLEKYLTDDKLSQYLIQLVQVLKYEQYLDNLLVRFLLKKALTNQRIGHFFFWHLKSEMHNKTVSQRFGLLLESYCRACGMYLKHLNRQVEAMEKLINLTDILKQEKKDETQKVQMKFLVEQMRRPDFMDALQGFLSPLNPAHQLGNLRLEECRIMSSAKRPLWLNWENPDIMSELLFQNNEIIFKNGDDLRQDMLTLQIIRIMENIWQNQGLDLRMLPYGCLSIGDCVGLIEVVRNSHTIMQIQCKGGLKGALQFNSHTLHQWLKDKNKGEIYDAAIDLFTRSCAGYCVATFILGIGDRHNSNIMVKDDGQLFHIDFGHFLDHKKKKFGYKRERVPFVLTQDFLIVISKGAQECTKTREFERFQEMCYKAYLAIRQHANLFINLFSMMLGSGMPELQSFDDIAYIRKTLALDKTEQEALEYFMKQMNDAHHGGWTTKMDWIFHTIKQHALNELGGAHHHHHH

The first experiment addresses PI3Kα (p85iSH2(461-568)-p110α(21-1068)-His, BV1075) (Homo sapiens (Human), UniProt P42336). The experiment is described as follows: PI3K KinaseGlo assay, PI3Kalpha. The experiment is classed as biochemical. Conditions: KinaseGlo, 1 μM ATP, 10 nM enzyme, 30 mins. (In general: Kinase-Glo measures the ATP left after a reaction by luminescence.)
In turn, `Cc1nc(NC(=O)N2C[C@H](O)C[C@H]2C(N)=O)sc1-c1ccnc(C(C)(C)C)n1` [Example 3, (2S,4R)-4-hydroxy-pyrrolidine-1,2-dicarboxylic acid 2-amide 1-{[5-(2-tert-butyl-pyrimidin-4-yl)-4-methyl-thiazol-2-yl]-amide}triflouroacetate] gave a pIC50 of 7.89.

Take `CCCc1nccn1-c1cc(-c2sc(NC(=O)N3CC(O)CC3C(N)=O)nc2C)ccc1S(C)(=O)=O` [Example 1, (2S,4R)-4-hydroxy-pyrrolidine-1,2-dicarboxylic acid 2-amide 1-({5-[4-methanesulfonyl-3-(2-propyl-imidazol-1-yl)-phenyl]-4-methyl-thiazol-2-yl}-amide)triflouroacetate]: the pIC50 was 6.77.

Molecule `Cc1nc(NC(=O)N2CCC[C@@]2(C)C(N)=O)sc1-c1ccnc(C2(C(F)(F)F)CCC2)c1` [Example 48, S)-2-Methyl-pyrrolidine-1,2-dicarboxylic acid 2-amide 1-({4-methyl-5-[2-(1-trifluoromethyl-cyclobutyl)-pyridin-4-yl]-thiazol-2-yl}-amide] had a pIC50 of 8.30.

The molecule `Cc1nc(NC(=O)N2CCC[C@@]2(C)C(N)=O)sc1-c1ccnc(N(C)CCN(C)C)n1` [Example 80, (S)-2-Methyl-pyrrolidine-1,2-dicarboxylic acid 2-amide 1-[(5-{2-[(2-dimethylamino-ethyl)-methyl-amino]-pyrimidin-4-yl}-4-methyl-thiazol-2-yl)-amide]] had a pIC50 of 6.60.

The molecule `CCN(CC)c1cc(-c2cnc(NC(=O)N3CCC[C@@]3(C)C(N)=O)s2)ccn1` [Example 122, (S)-2-Methyl-pyrrolidine-1,2-dicarboxylic acid 2-amide 1-{[5-(2-diethylamino-pyridin-4-yl)-thiazol-2-yl]-amide}] had a pIC50 of 7.30.

As to `COc1ccc(C2(c3cc(-c4sc(NC(=O)N5CCC[C@@]5(C)C(N)=O)nc4C)ccn3)CC2)cc1` [Example 54, (S)-2-Methyl-pyrrolidine-1,2-dicarboxylic acid 2-amide 1-[(5-{2-[1-(4-methoxy-phenyl)-cyclopropyl]-pyridin-4-yl}-4-methyl-thiazol-2-yl)-amide]], the pIC50 was 6.72.

As for `Cc1nc(NC(=O)N2CCC[C@@]2(C)C(N)=O)sc1-c1ccnc(C2(C)CC2)c1` [Example 40, S)-2-Methyl-pyrrolidine-1,2-dicarboxylic acid 2-amide 1-({4-methyl-5-[2-(1-methyl-cyclopropyl)-pyridin-4-yl]-thiazol-2-yl}-amide], the pIC50 is 7.43.

For the molecule `CC1(c2cc(-c3cnc(NC(=O)N4CCC[C@@]4(C)C(N)=O)s3)ccn2)CC1` [Example 117, S)-2-Methyl-pyrrolidine-1,2-dicarboxylic acid 2-amide 1-({5-[2-(1-methyl-cyclopropyl)-pyridin-4-yl]-thiazol-2-yl}amide], the pIC50 is 7.59.

On to `Cc1nc(NC(=O)N2CCC[C@@]2(C)C(N)=O)sc1-c1ccnc(-n2ccnc2C)n1` [Example 102, S)-2-Methyl-pyrrolidine-1,2-dicarboxylic acid 2-amide 1-({4-methyl-5-[2-(2-methyl-imidazol-1-yl)-pyrimidin-4-yl]-thiazol-2-yl}-amide], for which the pIC50 is 6.68.

In turn, `Cc1nc(NC(=O)N2CCC[C@@]2(C)C(N)=O)sc1-c1ccnc(C2(C#N)CC2)c1` [Example 49, S)-2-Methyl-pyrrolidine-1,2-dicarboxylic acid 2-amide 1-({5-[2-(1-cyano-cyclopropyl)-pyridin-4-yl]-4-methyl-thiazol-2-yl}-amide] had a pIC50 of 7.77.

`Cc1nc(NC(=O)N2CCC[C@]2(C(N)=O)C(F)F)sc1-c1ccnc(C(C)(C)C)n1` [Example 114, (S)-2-Difluoromethyl-pyrrolidine-1,2-dicarboxylic acid 2-amide 1-{[5-(2-tert-butyl-pyrimidin-4-yl)-4-methyl-thiazol-2-yl]-amide}] gave a pIC50 of 6.89.

For the molecule `Cc1nc(NC(=O)N2C[C@H](O)C[C@@]2(C)C(N)=O)sc1-c1ccnc(C(C)(C)C)n1` [Example 65, (2S,4R)-4-Hydroxy-2-methyl-pyrrolidine-1,2-dicarboxylic acid 2-amide 1-{[5-(2-tert-butyl-pyrimidin-4-yl)-4-methyl-thiazol-2-yl]-amide}], the pIC50 was 7.51.

`Cc1nc(NC(=O)N2C[C@H]3C[C@H]3[C@H]2C(N)=O)sc1-c1ccnc(C(C)(C)C)n1` [Example 11, (1R,2S,5S)-3-aza-bicyclo[3.1.0]hexane-2,3-dicarboxylic acid 2-amide 3-{[5-(2-tert-butyl-pyrimidin-4-yl)-4-methyl-thiazol-2-yl]-amide}] gave a pIC50 of 7.32.

The molecule `Cc1nc(NC(=O)N2CCC[C@@]2(C)C(N)=O)sc1-c1ccnc(CC2CC2)n1` [Example 110, (S)-2-Methyl-pyrrolidine-1,2-dicarboxylic acid 2-amide 1-{[5-(2-cyclopropylmethyl-pyrimidin-4-yl)-4-methyl-thiazol-2-yl]-amide}] gave a pIC50 of 7.15.

In turn, `CC1(c2cc(-c3sc(NC(=O)N4CCC[C@@]4(C)C(N)=O)nc3Cl)ccn2)CC1` [Example 129, S)-2-Methyl-pyrrolidine-1,2-dicarboxylic acid 2-amide 1-({4-chloro-5-[2-(1-methyl-cyclopropyl)-pyridin-4-yl]-thiazol-2-yl}-amide] gave a pIC50 of 7.62.

On to `[2H]C([2H])([2H])C(c1nccc(-c2sc(NC(=O)N3CCC[C@@]3(C)C(N)=O)nc2C)n1)(C([2H])([2H])[2H])C([2H])([2H])[2H]` [Example 111], for which the pIC50 was 7.28.

The molecule `COc1ccc(C(C)(C)c2cc(-c3cnc(NC(=O)N4CCC[C@@]4(C)C(N)=O)s3)ccn2)cc1` [Example 124, (S)-2-Methyl-pyrrolidine-1,2-dicarboxylic acid 2-amide 1-[(5-{2-[1-(4-methoxy-phenyl)-1-methyl-ethyl]-pyridin-4-yl}-thiazol-2-yl)-amide]] gave a pIC50 of 7.55.

For `Cc1nc(NC(=O)N2CCC[C@@]2(CN(C)C)C(N)=O)sc1-c1ccnc(C(C)(C)C)n1` [Example 107, (R)-2-Dimethylaminomethyl-pyrrolidine-1,2-dicarboxylic acid 2-amide 1-{[5-(2-tert-butyl-pyrimidin-4-yl)-4-methyl-thiazol-2-yl]-amide}], the pIC50 was 7.36.

Molecule `CCN(Cc1ccccc1)c1nccc(-c2sc(NC(=O)N3CCC[C@@]3(C)C(N)=O)nc2C)n1` [Example 98] showed a pIC50 of 6.85.

As for `Cc1nc(NC(=O)N2CCC[C@@]2(C)C(N)=O)sc1-c1ccnc(C2(C(F)(F)F)CC2)c1` [Example 46, S)-2-Methyl-pyrrolidine-1,2-dicarboxylic acid 2-amide 1-({4-methyl-5-[2-(1-trifluoromethyl-cyclopropyl)-pyridin-4-yl]-thiazol-2-yl}-amide], the pIC50 was 8.05.

As for `Cc1nc(NC(=O)N2CC(F)(F)C[C@H]2C(N)=O)sc1-c1ccnc(C2(C)CC2)c1` [Example 59, S)-4,4-Difluoro-pyrrolidine-1,2-dicarboxylic acid 2-amide 1-({4-methyl-5-[2-(1-methyl-cyclopropyl)-pyridin-4-yl]-thiazol-2-yl}-amide], the pIC50 is 7.15.

In turn, `Cc1nc(NC(=O)N2CCC[C@@]2(C)C(N)=O)sc1-c1ccnc(C(C)(C)C(F)(F)F)c1` [Example 47, S)-2-Methyl-pyrrolidine-1,2-dicarboxylic acid 2-amide 1-({4-methyl-5-[2-(2,2,2-trifluoro-1,1-dimethyl-ethyl)-pyridin-4-yl]-thiazol-2-yl}-amide] had a negative-log IC50 (pIC50) of 7.40.

Molecule `CCN(CC)c1nccc(-c2sc(NC(=O)N3CC[C@@H]4C[C@@]43C(N)=O)nc2C)n1` [Example 88, (1S,5R)-2-Aza-bicyclo[3.1.0]hexane-1,2-dicarboxylic acid 1-amide 2-{[5-(2-diethylamino-pyrimidin-4-yl)-4-methyl-thiazol-2-yl]-amide}] gave a pIC50 of 7.12.

`COC[C@@]1(C(N)=O)CCCN1C(=O)Nc1nc(C)c(-c2ccnc(C(C)(C)C)n2)s1` [Example 112, (R)-2-Methoxymethyl-pyrrolidine-1,2-dicarboxylic acid 2-amide 1-{[5-(2-tert-butyl-pyrimidin-4-yl)-4-methyl-thiazol-2-yl]-amide}] showed a pIC50 of 7.31.

For `CSc1nccc(-c2sc(NC(=O)N3CCC[C@@]3(C)C(N)=O)nc2C)n1` [Example 74, (S)-2-Methyl-pyrrolidine-1,2-dicarboxylic acid 2-amide 1-{[4-methyl-5-(2-methylsulphanyl-pyrimidin-4-yl)-thiazol-2-yl]-amide}], the pIC50 is 6.89.

`Cc1nc(NC(=O)N2C[C@@H](O)C[C@H]2C(N)=O)sc1-c1ccnc(C(C)(C)C)c1` [Example 7, (2S,4S)-4-hydroxy-pyrrolidine-1,2-dicarboxylic acid 2-amide 1-{[5-(2-tert-butyl-pyridin-4-yl)-4-methyl-thiazol-2-yl]-amide}] showed a pIC50 of 7.82.

Consider `CC(C)(c1cc(-c2cnc(NC(=O)N3CCC[C@@]3(C)C(N)=O)s2)ccn1)C(F)(F)F` [Example 119, S)-2-Methyl-pyrrolidine-1,2-dicarboxylic acid 2-amide 1-({5-[2-(2,2,2-trifluoro-1,1-dimethyl-ethyl)-pyridin-4-yl}-thiazol-2-yl]-amide], for which the pIC50 was 8.10.

`CCN(CCOC)c1nccc(-c2sc(NC(=O)N3CCC[C@@]3(C)C(N)=O)nc2C)n1` [Example 101, (S)-2-Methyl-pyrrolidine-1,2-dicarboxylic acid 2-amide 1-[(5-{2-[ethyl-(2-methoxy-ethyl)-amino]-pyrimidin-4-yl}-4-methyl-thiazol-2-yl)-amide]] showed a pIC50 of 7.00.

Still in this experiment, the particulars now being: KinaseGlo, 1 μM ATP; alpha vs. delta selectivity table.
Turning to `Cc1nc(NC(=O)N2CC[C@H](O)[C@H]2C(N)=O)sc1-c1ccnc(C(C)(C)C)n1.O=C(O)C(F)(F)F` [Example 9, (2S,3S)-3-hydroxy-pyrrolidine-1,2-dicarboxylic acid 2-amide 1-{[5-(2-tert-butyl-pyrimidin-4-yl)-4-methyl-thiazol-2-yl]-amide}triflouroacetate], the pIC50 was 7.92.

Staying with this experiment, now noted: ratio of PI3Kdelta IC50 to PI3Kalpha IC50.
Regarding `Cc1nc(NC(=O)N2CC[C@H](O)[C@H]2C(N)=O)sc1-c1ccnc(C(C)(C)C)n1.O=C(O)C(F)(F)F` [Example 9, (2S,3S)-3-hydroxy-pyrrolidine-1,2-dicarboxylic acid 2-amide 1-{[5-(2-tert-butyl-pyrimidin-4-yl)-4-methyl-thiazol-2-yl]-amide}triflouroacetate], the “Selectivity PI3Kalpha vs. PI3Kdelta” value is reported as 38-fold.
